melting point	Compound
164 to 166 °C	CC(=O)NC[C@H]1CN(c2ccc(-n3cc4cncnc4c3)c(F)c2)C(=O)O1 [Compound 37]
211 to 214 °C	CC(=O)NC[C@H]1CN(c2ccc(N3Cc4ccccc4C3=O)c(F)c2)C(=O)O1 [Compound 46, N-[[(5S)-3-[4-(1,3-dihydro-1-oxo-2H-isoindol-2-yl)-3-fluorophenyl]-2-oxo-5-oxazolidinyl]methyl]acetamide]
208 to 212 °C (dec.)	O=C1O[C@@H](CO)CN1c1ccc(N2Cc3cccnc3C2)c(F)c1 [Compound 2, (5R)-3-[4-(5,7-Dihydro-6H-pyrrolo[3,4-b]pyridin-6-yl)-3-fluorophenyl]-5-(hydroxymethyl)-2-oxazolidinone]
216 to 220 °C	CC(=O)NC[C@H]1CN(c2ccc(N3Cc4cnc(-c5ccccn5)nc4C3)c(F)c2)C(=O)O1 [Compound 42]
181 to 185 °C (dec.)	CC(=O)NC[C@@H]1CN(c2ccc(-n3cc4cccnc4c3)c(F)c2)C(=O)O1 [Compound 6]
234 °C (dec.)	CC(=O)NC[C@H]1CN(c2ccc(N3Cc4cnc(C)nc4C3)c(F)c2)C(=O)O1 [Compound 35]
155 to 157 °C	CC(=O)NC[C@H]1CN(c2ccc(N3Cc4cnn(C(C)(C)C)c4C3)c(F)c2)C(=O)O1 [Compound 52]
184 to 188 °C	CC(=O)NC[C@H]1CN(c2ccc(N3Cc4cn(C[C@@H](O)CO)nc4C3)c(F)c2)C(=O)O1 [Compound 69]
232 to 242 °C (dec.)	CC(=O)NC[C@H]1CN(c2ccc(N3Cc4cn(CCO)nc4C3)c(F)c2)C(=O)O1 [Compound 65, N-[[(5S)-3-[4-[2,6-dihydro-2-(2-hydroxyethyl)pyrrolo[3,4-c]pyrazol-5(4H)-yl]-3-fluorophenyl]-2-oxo-5-oxazolidinyl]methyl]acetamide]
240 to 242 °C	CC(=O)NC[C@H]1CN(c2ccc(N3Cc4ccccc4C3)c(F)c2)C(=O)O1 [Compound 1, N-[[(5S)-3-[4-(1,3-Dihydro-2H-isoindol-2-yl)-3-fluorophenyl]-2-oxo-5-oxazolidinyl]methyl]acetamide]
230 to 232 °C	CC(=O)NC[C@H]1CN(c2ccc(N3Cc4cccnc4C3=O)c(F)c2)C(=O)O1 [Compound 48]
235 to 240 °C	O=C(NC[C@H]1CN(c2ccc(N3Cc4cccnc4C3)c(F)c2)C(=O)O1)C1CC1 [Compound 15]
234 to 236 °C	CC(=O)NC[C@H]1CN(c2ccc(N3Cc4cnn(CC5CC5)c4C3)c(F)c2)C(=O)O1 (single isomer, unassigned) [Compound 73]
185 to 187 °C	O=C1O[C@@H](COc2cnsn2)CN1c1ccc(N2Cc3cccnc3C2)c(F)c1 [Compound 11]
204 to 207 °C	CS/C(=N\C#N)NC[C@H]1CN(c2ccc(N3Cc4cccnc4C3)c(F)c2)C(=O)O1 [Compound 22]
240 to 242 °C	CC(=O)NC[C@H]1CN(c2ccc(N3C(=O)c4ccccc4C3=O)c(F)c2)C(=O)O1 [Compound 47]
110 to 112 °C	CCC(=O)NC[C@H]1CN(c2ccc(N3Cc4cccnc4C3)c(F)c2)C(=O)O1 [Compound 13]
219 to 225 °C (dec.)	CC(=O)NC[C@H]1CN(c2ccc(-n3cc4ccncc4c3)c(F)c2)C(=O)O1 [Compound 28]
192 to 194 °C	O=C1O[C@@H](COc2cnccn2)CN1c1ccc(-n2cc3cccnc3c2)c(F)c1 [Compound 10]
265 to 270 °C (dec.)	CC(=O)NC[C@H]1CN(c2ccc(N3Cc4cnc(-c5cccnc5)nc4C3)c(F)c2)C(=O)O1 [Compound 43]
172 to 176 °C	CS(=O)(=O)NC[C@H]1CN(c2ccc(N3Cc4cccnc4C3)c(F)c2)C(=O)O1 [Compound 20]

melting point	Compound
225 to 230 °C	O=C1O[C@@H](COc2cnccn2)CN1c1ccc(N2Cc3cccnc3C2)c(F)c1 [Compound 9]
219 to 225 °C (dec.)	CC(=O)NC[C@H]1CN(c2ccc(-n3cc4cc[n+]([O-])cc4c3)c(F)c2)C(=O)O1 [Compound 27, N-[[(5S)-3-[3-Fluoro-4-(5-oxido-2H-pyrrolo[3,4-c]pyridin-2-yl)phenyl]-2-oxo-5-oxazolidinyl]methyl]acetamide]
245 to 250 °C (dec.)	CC(=O)NC[C@H]1CN(c2ccc(N3Cc4cnc(-c5ccncc5)nc4C3)c(F)c2)C(=O)O1 [Compound 41]
207 to 209 °C	CC(=O)NC[C@H]1CN(c2ccc(N3Cc4ncccc4C3=O)c(F)c2)C(=O)O1 [Compound 49]
244 to 247 °C (dec.)	CC(=O)NC[C@H]1CN(c2ccc(N3Cc4c[nH]nc4C3)c(F)c2)C(=O)O1 [Compound 44]
185 to 188 °C	O=C1O[C@@H](COc2cnsn2)CN1c1ccc(-n2cc3cccnc3c2)c(F)c1 [Compound 12]
204 to 208 °C	CCCn1ncc2c1CN(c1ccc(N3C[C@H](CNC(C)=O)OC3=O)cc1F)C2 [Compound 45]
188 to 191 °C	CC(=O)NC[C@H]1CN(c2ccc(N3Cc4cn(C[C@H](O)CO)nc4C3)c(F)c2)C(=O)O1 [Compound 66]
212 to 214 °C	CC(=O)NC[C@H]1CN(c2ccc(N3Cc4cnc(-c5cnccn5)nc4C3)c(F)c2)C(=O)O1 [Compound 38]
170 to 172 °C	CC(=O)NC[C@H]1CN(c2ccc(N3Cc4cn(CC(F)(F)F)nc4C3)c(F)c2)C(=O)O1 [Compound 70]
171 to 173 °C	CC(=O)NC[C@H]1CN(c2ccc(N3Cc4cn(CCCO)nc4C3)c(F)c2)C(=O)O1 [Compound 68]
182 to 185 °C	O=C1O[C@@H](COc2ccon2)CN1c1ccc(N2Cc3cccnc3C2)c(F)c1 [Compound 7]
230 to 232 °C	CC(=O)NC[C@H]1CN(c2ccc(N3Cc4cncnc4C3)c(F)c2)C(=O)O1 [Compound 36]
175 to 180 °C (dec.)	[N-]=[N+]=NC[C@H]1CN(c2ccc(N3Cc4cccnc4C3)c(F)c2)C(=O)O1 [Example 7]
246 to 249 °C	CNC(=S)n1cc2c(n1)CN(c1ccc(N3C[C@H](CNC(C)=O)OC3=O)cc1F)C2 [Compound 87]
211 to 213 °C	CC(=O)NC[C@H]1CN(c2ccc(N3Cc4cnn(C)c4C3)c(F)c2)C(=O)O1 [Compound 50]
133 to 135 °C	O=C1O[C@@H](COc2ccon2)CN1c1ccc(-n2cc3cccnc3c2)c(F)c1 [Compound 8]
220 to 225 °C (dec.)	CC(=O)NC[C@H]1CN(c2ccc(-n3cc4cccnc4c3)c(F)c2)C(=O)O1 [Compound 4]
163 to 165 °C	CC(=O)NC[C@H]1CN(c2ccc(N3Cc4cnn(CCO)c4C3)c(F)c2)C(=O)O1 [Compound 53]
202 to 206 °C	N/C(=N\[N+](=O)[O-])NC[C@H]1CN(c2ccc(N3Cc4cccnc4C3)c(F)c2)C(=O)O1 [Compound 24]
259 to 261 °C (dec.)	CC(=O)NC[C@H]1CN(c2ccc(N3Cc4cn(-c5ccccn5)nc4C3)c(F)c2)C(=O)O1 [Compound 51]
